The values that follow are results of earlier work, collected in patent US20090181086A1 (priority 2008, published 2009).

Molecules are shown by their SMILES. Like-named read-outs stand apart in the source and are kept apart here.

The target of one data set is CYP1A2 (Homo sapiens, UniProt P05177). Conditions: in vitro.
Another data set addresses platelet MAO-B (Homo sapiens, UniProt P27338).
Data set [1] relates to monoamine oxidase type B (MAO-B). Conditions: ex vivo, brain, liver and intestinal tissues.
Another data set concerns the target human albumin (Homo sapiens, UniProt P02768). Conditions: concentration range of 1-100 ng/mL.
[2] abbreviates: oral 14C-labeled rasagiline, over 7 days.

platelet MAO-B, sequence (P27338 whole entry): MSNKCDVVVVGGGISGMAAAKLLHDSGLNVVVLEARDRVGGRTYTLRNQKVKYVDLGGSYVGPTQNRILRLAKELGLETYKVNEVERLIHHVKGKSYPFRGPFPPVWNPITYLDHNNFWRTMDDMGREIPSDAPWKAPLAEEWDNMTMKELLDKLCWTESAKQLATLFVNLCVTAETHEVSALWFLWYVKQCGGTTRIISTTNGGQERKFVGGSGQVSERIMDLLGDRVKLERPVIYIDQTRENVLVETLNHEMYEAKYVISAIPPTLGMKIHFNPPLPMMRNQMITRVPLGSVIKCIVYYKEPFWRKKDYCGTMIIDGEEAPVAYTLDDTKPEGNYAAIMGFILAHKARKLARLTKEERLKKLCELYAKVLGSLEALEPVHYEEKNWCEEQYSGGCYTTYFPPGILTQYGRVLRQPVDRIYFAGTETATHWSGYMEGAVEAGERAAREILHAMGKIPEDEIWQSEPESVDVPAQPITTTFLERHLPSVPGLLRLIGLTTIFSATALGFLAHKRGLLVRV
CYP1A2, sequence (P05177 whole entry, species assumed): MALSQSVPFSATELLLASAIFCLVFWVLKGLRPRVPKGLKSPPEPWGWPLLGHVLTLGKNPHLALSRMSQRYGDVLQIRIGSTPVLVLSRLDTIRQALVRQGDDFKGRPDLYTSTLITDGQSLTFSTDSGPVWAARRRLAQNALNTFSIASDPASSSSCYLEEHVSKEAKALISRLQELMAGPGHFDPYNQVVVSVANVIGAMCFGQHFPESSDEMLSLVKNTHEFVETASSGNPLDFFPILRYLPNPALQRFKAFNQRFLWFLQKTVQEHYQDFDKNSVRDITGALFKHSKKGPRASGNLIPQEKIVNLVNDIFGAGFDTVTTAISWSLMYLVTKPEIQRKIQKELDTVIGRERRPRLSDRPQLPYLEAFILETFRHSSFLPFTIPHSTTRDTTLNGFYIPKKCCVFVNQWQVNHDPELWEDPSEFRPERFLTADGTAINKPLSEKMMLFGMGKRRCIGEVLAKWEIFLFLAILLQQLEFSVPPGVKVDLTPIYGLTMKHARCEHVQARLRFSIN
human albumin, sequence (P02768 25-609): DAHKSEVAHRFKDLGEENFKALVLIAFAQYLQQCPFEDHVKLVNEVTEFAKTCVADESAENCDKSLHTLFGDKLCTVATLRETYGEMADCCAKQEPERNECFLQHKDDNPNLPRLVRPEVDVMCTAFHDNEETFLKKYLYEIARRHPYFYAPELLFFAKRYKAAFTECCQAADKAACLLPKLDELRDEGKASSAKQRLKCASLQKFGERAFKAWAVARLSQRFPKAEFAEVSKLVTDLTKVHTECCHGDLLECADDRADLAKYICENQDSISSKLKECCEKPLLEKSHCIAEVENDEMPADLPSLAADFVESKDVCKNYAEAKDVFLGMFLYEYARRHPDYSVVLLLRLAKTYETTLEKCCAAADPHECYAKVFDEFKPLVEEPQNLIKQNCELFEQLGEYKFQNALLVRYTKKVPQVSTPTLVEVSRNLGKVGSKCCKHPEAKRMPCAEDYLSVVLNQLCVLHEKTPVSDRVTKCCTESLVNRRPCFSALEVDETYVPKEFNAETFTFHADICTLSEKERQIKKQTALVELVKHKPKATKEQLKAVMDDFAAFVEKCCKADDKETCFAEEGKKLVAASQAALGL

Turning to `C#CCN[C@@H]1CCc2ccccc21` [rasagiline, R(+)-N-propargyl-1-aminoindan], at CYP1A2, the “isoenzyme involved in rasagiline metabolism, in words” value is listed as “CYP1A2 being the major isoenzyme involved”. For the same compound, the MAO-B inhibition entry at platelet MAO-B (3 days after daily dosing at 2 mg/day, maintained 3 days post-dose) is “Over 90%”. At platelet MAO-B (after a single rasagiline dose of 1 mg/day), the MAO-B inhibition was 25-35%. Besides, the MAO-B inhibition result on platelet MAO-B (after a single rasagiline dose of 2 mg/day) is “more than 55%”. Besides, at platelet MAO-B (human, in vivo), the “duration of platelet MAO-B inhibition after last dose” value is reported as “at least 1 week”. Besides, the “MAO-B inhibition, in words” value on platelet MAO-B (multiple doses of 0.5, 1 and 2 mg per day) was “complete MAO-B inhibition”. Moreover, the “MAO-B inhibition in platelets, in words” value on platelet MAO-B (recommended therapeutic dose) was “potent and irreversible inhibitor of MAO-B”. The “MAO-B inhibition, in words” value in data set [1] is “potent, irreversible monoamine oxidase type B (MAO-B) selective inhibitor”. Moreover, the “mean extent of binding to human albumin” value at human albumin is 61-63%. Also, the Plasma protein binding in the data set with plasma protein is 88-94%. Besides, under “doses over the range of 1-10 mg”, the “pharmacokinetics versus dose, in words” value is “linear”. For the same compound, where the note is “human, in vivo”, the absolute bioavailability result is given as “about 36%”; the “effect of food on Tmax, in words” value was “does not affect”; the “excreted as unchanged drug in urine” value is recorded as “Less than 1%”; the “mean steady-state half life” value is 3 h. The “mean volume of distribution at steady-state” value (human, in vivo) is 87 L. Under setting [2], the elimination via feces is 7 % of total dose and the elimination via urine is 62 % of total dose. The total calculated recovery (oral 14C-labeled rasagiline, over a period of 38 days) is 84 % of the dose. In addition, where the note is “taken with a high fat meal”, the “decrease of Cmax” value is reported as “approximately 60%” and the “decrease of exposure (AUC)” value is about 20%.
